In ChEMBL document CHEMBL4732150 (J Med Chem, 2021):
The source made the active and inactive calls. The rule behind the calls is not given here.

Tests used:
NCI-H1975 = experiment: Antiproliferative activity against human NCI-H1975 cells assessed as reduction in cell viability incubated for 72 hrs by sulforhodamine B assay; assay type: functional, cell-based; settings: NCI-H1975, 72 h
A-431 = experiment: Antiproliferative activity against human A-431 cells assessed as reduction in cell viability incubated for 72 hrs by sulforhodamine B assay; assay type: functional, cell-based; settings: A-431, 72 h
[1] = Selectivity ratio of IC50 for antiproliferative activity against human A-431 cells to IC50 for antiproliferative activity against human NCI-H1975 cells; assay type: functional
BaF3 [2] = experiment: cells; settings: Mus musculus, BaF3, 72 h
BaF3 [3] = experiment: cells; settings: Mus musculus, BaF3, 72 h; remark: listed apart in the source
[4] = Intrinsic clearance in Beagle dog liver microsomes preincubated for 10 mins under shaking condition followed by NADPH generating system addition and measured up to 60 mins by LC-MS/MS analysis; assay type: ADME, Canis lupus familiaris, Microsome; settings: 1 h, time <=70 min
[5] = Half life in Beagle dog liver microsomes preincubated for 10 mins under shaking condition followed by NADPH generating system addition and measured up to 60 mins by LC-MS/MS analysis
[6] = Tmax in Sprague-Dawley rat assessed as AZ5104 at 6 mg/kg/day, IG administered as single dose and measured up to 24 hrs by LC-MS/MS analysis; assay type: ADME, organism-based; settings: in vivo, po
[7] = Apparent oral clearance in Sprague-Dawley rat at 6 mg/kg/day, IG administered as single dose and measured up to 24 hrs by LC-MS/MS analysis; assay type: ADME, organism-based; settings: in vivo
BaF3 [8] = experiment: Antitumor activity against mouse BAF3 cells harboring EGFR del19/T790M mutant xenografted in Balb/c nude mouse assessed as suppression of tumor growth at 3 to 5 mg/kg, po QD administered via gavage for 18 days relative to control; assay type: functional, organism-based; settings: dose 3-5 mg/kg, time 18.0 day, tested as the 2H-labelled form
[9] = Intrinsic clearance in cynomolgus monkey liver microsomes preincubated for 10 mins under shaking condition followed by NADPH generating system addition and measured up to 60 mins by LC-MS/MS analysis; assay type: ADME, Macaca fascicularis, Microsome; settings: 1 h, time <=70 min
[10] = Half life in CD1 mouse liver microsomes preincubated for 10 mins under shaking condition followed by NADPH generating system addition and measured up to 60 mins by LC-MS/MS analysis
[11] = Intrinsic clearance in human liver microsomes preincubated for 10 mins under shaking condition followed by NADPH generating system addition and measured up to 60 mins by LC-MS/MS analysis; assay type: ADME, Microsome; settings: 1 h, time <=70 min
[12] = Cmax in Sprague-Dawley rat at 6 mg/kg/day, IG administered as single dose and measured up to 24 hrs by LC-MS/MS analysis; assay type: ADME, organism-based; set-up: route […], dose 6 mg/kg/day, time <=24; settings: in vivo, po
[13] = Intrinsic clearance in Sprague-Dawley rat liver microsomes preincubated for 10 mins under shaking condition followed by NADPH generating system addition and measured up to 60 mins by LC-MS/MS analysis; assay type: ADME, Microsome; settings: 1 h, time <=70 min
[14] = Cmax in Sprague-Dawley rat assessed as AZ5104 at 6 mg/kg/day, IG administered as single dose and measured up to 24 hrs by LC-MS/MS analysis; assay type: ADME, organism-based; set-up: route […], dose 6 mg/kg/day, time <=24; settings: in vivo, po
[15] = Half life in Sprague-Dawley rat liver microsomes preincubated for 10 mins under shaking condition followed by NADPH generating system addition and measured up to 20 mins by LC-MS/MS analysis
in vitro = settings: human, liver microsomes
[16] = Half life in cynomolgus monkey liver microsomes preincubated for 10 mins under shaking condition followed by NADPH generating system addition and measured up to 60 mins by LC-MS/MS analysis
[17] = Toxicity in Balb/c nude mouse xenografted with human NCI-H1975 cells harboring EGFR L858R/T790M mutant assessed as change in body weight at 1.5 to 2.5 mg/kg, po QD administered via gavage for 24 days and measured twice weekly; assay type: organism-based; settings: in vivo, 576 h, dose 1.5-2.5 mg/kg, time 24 day
[18] = Intrinsic clearance in CD1 mouse liver microsomes preincubated for 10 mins under shaking condition followed by NADPH generating system addition and measured up to 60 mins by LC-MS/MS analysis; assay type: ADME, Microsome; settings: 1 h, time <=70 min
in vivo = settings: Sprague-Dawley, rat, po, 6 mg/kg

| IC50 (NCI-H1975) | IC50 (A-431) | SMILES | Ratio IC50 [1] | further results |
| --- | --- | --- | --- | --- |
| 208 nM | 2500 nM | C=C(F)C(=O)Nc1cc(Nc2nccc(-c3cn(C)c4ccccc34)n2)c(OC)cc1N(C)CCN(C)C | 12 |  |
| 241 nM | 1550 nM | C=C(Cl)C(=O)Nc1cc(Nc2nccc(-c3cn(C)c4ccccc34)n2)c(OC)cc1N(C)CCN(C)C | 6 |  |
| 546 nM | 11200 nM | C=C(C(=O)Nc1cc(Nc2nccc(-c3cn(C)c4ccccc34)n2)c(OC)cc1N(C)CCN(C)C)C(F)(F)F | 21 |  |
| 486 nM | 5340 nM | C=C(C)C(=O)Nc1cc(Nc2nccc(-c3cn(C)c4ccccc34)n2)c(OC)cc1N(C)CCN(C)C | 11 |  |
| 147 nM | 1060 nM | C=C(Br)C(=O)Nc1cc(Nc2nccc(-c3cn(C)c4ccccc34)n2)c(OC)cc1N(C)CCN(C)C | 7 |  |

More lines, now with the values behind:

| SMILES | IC50 (NCI-H1975) | IC50 (A-431) | Ratio IC50 [1] | further results |
| --- | --- | --- | --- | --- |
| [2H]C([2H])=CC(=O)Nc1cc(Nc2nccc(-c3cn(C([2H])([2H])[2H])c4ccccc34)n2)c(OC)cc1N(C)CCN(C)C | […] | […] |  | IC50 (BaF3 [2]): 18 nM; IC50 (BaF3 [3]): 3.5 nM |
| C=CC(=O)Nc1cc(Nc2nccc(-c3cn(C)c4ccccc34)n2)c(OC)cc1N(C)CCN(C)C [OSIMERTINIB] |  | […] |  | CLint [4]: 53.2 µL/min/mg; half-life at 1 h [5]: 26.1 min; Tmax [6]: 380 min; CL/F [7]: 313 mL/min/kg; Activity (BaF3 [8]): Active; CLint [9]: 41.7 µL/min/mg; half-life at 1 h [10]: 22.3 min; CLint [11]: 8.1 µL/min/mg; IC50 (BaF3 [2]): 21.5 nM; Cmax [12]: 145 nM; CLint [13]: 37.6 µL/min/mg; Cmax [14]: 6.4 nM; half-life at 20 min [15]: 36.8 min; half-life at 1 h (in vitro): […]; half-life at 1 h [16]: […]; IC50 (BaF3 [3]): 4 nM; Activity [17]: Toxic; CLint [18]: 62.1 µL/min/mg; half-life at 24 h (in vivo): 227 min |
| C/C=C/C(=O)Nc1cc(Nc2nccc(-c3cn(C)c4ccccc34)n2)c(OC)cc1N(C)CCN(C)C | 496 nM | 5790 nM | 12 |  |
